In PubChem BioAssay (NCI):
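Protocol summary: plate cells (96-well), add compound at 5 concentrations, incubate 48 h, interpolate endpoints linearly. GI50 = concentration required for 50% inhibition of growth. TGI: concentration producing complete growth inhibition.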

Columns and labels:
Test in all cases: NCI anticancer screen, dose series, 48 h
CAKI-1 renal = system: CAKI-1 renal
DU-145 prostate = system: DU-145 prostate
EKVX NSCLC = system: EKVX NSCLC
HL-60(TB) leukemia = system: HL-60(TB) leukemia
HS 578T breast = system: HS 578T breast
MOLT-4 leukemia = system: MOLT-4 leukemia
NCI-H23 lung = system: NCI-H23 lung
SK-MEL-2 melanoma = system: SK-MEL-2 melanoma
SK-MEL-5 melanoma = system: SK-MEL-5 melanoma
SK-OV-3 ovarian = system: SK-OV-3 ovarian

## COc1ccc(-n2cc(-c3cc(OC)c(OC)c(OC)c3)c(C(=O)C(F)(F)F)c2C)cc1
CAKI-1 renal
  GI50: 73.8 µM
  TGI: > 100 µM
DU-145 prostate
  GI50: > 100 µM
  TGI: > 100 µM
EKVX NSCLC
  GI50: 13.9 µM
  TGI: > 100 µM
HL-60(TB) leukemia
  GI50: 37.3 µM
  TGI: > 100 µM
HS 578T breast
  GI50: 53.1 µM
  TGI: > 100 µM
MOLT-4 leukemia
  GI50: 6.02 µM
  TGI: > 100 µM
NCI-H23 lung
  GI50: 8.53 µM
  TGI: > 100 µM
SK-MEL-2 melanoma
  GI50: > 100 µM
  TGI: > 100 µM
SK-MEL-5 melanoma
  GI50: 7.33 µM
  TGI: > 100 µM
SK-OV-3 ovarian
  GI50: > 100 µM
  TGI: > 100 µM

## CCCCCCCCCCCCOC1C(C(COC2OC(C3COC(C)(C)O3)C3OC(C)(C)OC23)NC(=O)Nc2ccc(C(=O)O)cc2)OC2OC(C)(C)OC21 (stereo not given)
CAKI-1 renal
  GI50: 5.45 µM
  TGI: 17.6 µM
DU-145 prostate
  GI50: 3.07 µM
  TGI: 9.79 µM
EKVX NSCLC
  GI50: 2.69 µM
  TGI: 10.8 µM
HL-60(TB) leukemia
  GI50: 2.12 µM
  TGI: 5.45 µM
HS 578T breast
  GI50: 3.46 µM
  TGI: 13.2 µM
MOLT-4 leukemia
  GI50: 3.29 µM
  TGI: 8.34 µM
NCI-H23 lung
  GI50: 2.64 µM
  TGI: 6.83 µM
SK-MEL-2 melanoma
  GI50: 2.23 µM
  TGI: 4.82 µM
SK-MEL-5 melanoma
  GI50: 1.75 µM
  TGI: 3.4 µM
SK-OV-3 ovarian
  GI50: 11.7 µM
  TGI: 24 µM

## CC(CCC=O)CCOCc1ccccc1 (stereo not given)
CAKI-1 renal
  TGI: > 60.8 µM
DU-145 prostate
  TGI: > 100 µM
EKVX NSCLC
  TGI: > 100 µM
HL-60(TB) leukemia
  TGI: 45.1 µM
HS 578T breast
  TGI: > 100 µM
MOLT-4 leukemia
  TGI: > 61.6 µM
NCI-H23 lung
  TGI: > 100 µM
SK-MEL-2 melanoma
  TGI: > 100 µM
SK-MEL-5 melanoma
  TGI: > 46.4 µM
SK-OV-3 ovarian
  TGI: > 100 µM

## CC(=O)c1cccc(NC(=O)C(=O)NNc2n[nH]c(=S)n2N)c1
CAKI-1 renal
  TGI: 34.4 µM
DU-145 prostate
  TGI: 19.2 µM
EKVX NSCLC
  TGI: 29 µM
HL-60(TB) leukemia
  TGI: 32.1 µM
HS 578T breast
  TGI: 7.48 µM
MOLT-4 leukemia
  TGI: 18.3 µM
NCI-H23 lung
  TGI: 11.4 µM
SK-MEL-2 melanoma
  TGI: 13.1 µM
SK-MEL-5 melanoma
  TGI: 2.6 µM
SK-OV-3 ovarian
  TGI: 43.1 µM

## CCCCCCCCCCCCCC1=NC(C)(C)CN1C(C)C
CAKI-1 renal
  GI50: 1.36 µM
  TGI: 2.84 µM
DU-145 prostate
  GI50: 1.7 µM
  TGI: 3.06 µM
EKVX NSCLC
  GI50: 1.49 µM
  TGI: 3.17 µM
HL-60(TB) leukemia
  GI50: 1.09 µM
  TGI: 2.72 µM
HS 578T breast
  GI50: 1.79 µM
  TGI: 3.86 µM
MOLT-4 leukemia
  GI50: 1.56 µM
  TGI: 3.26 µM
NCI-H23 lung
  GI50: 1.67 µM
  TGI: 3.11 µM
SK-MEL-2 melanoma
  GI50: 1.88 µM
  TGI: 3.39 µM
SK-MEL-5 melanoma
  GI50: 1.67 µM
  TGI: 3.03 µM
SK-OV-3 ovarian
  GI50: 1.79 µM
  TGI: 3.17 µM

## C=CCCCCC/C=C\[C@H](O)C#CC#C/C=C/CO
CAKI-1 renal
  GI50: 32.6 µM
  TGI: 86.6 µM
DU-145 prostate
  GI50: 66.3 µM
  TGI: > 100 µM
EKVX NSCLC
  GI50: 52.7 µM
  TGI: > 100 µM
HL-60(TB) leukemia
  GI50: 3.64 µM
  TGI: 24.1 µM
HS 578T breast
  GI50: 45.4 µM
  TGI: > 100 µM
MOLT-4 leukemia
  GI50: 17.3 µM
  TGI: 49.2 µM
NCI-H23 lung
  GI50: 22.6 µM
  TGI: 50.9 µM
SK-MEL-2 melanoma
  GI50: 83.3 µM
  TGI: > 100 µM
SK-MEL-5 melanoma
  GI50: 38.5 µM
  TGI: > 100 µM
SK-OV-3 ovarian
  GI50: > 100 µM
  TGI: > 100 µM

## CCN(CC)c1ccc2c(c1)OC(N)=C(C#N)C2c1cc(OC)c2c(c1)OCO2 (stereo not given)
CAKI-1 renal
  GI50: 0.108 µM
  TGI: 59.1 µM
DU-145 prostate
  GI50: 0.0358 µM
  TGI: 0.428 µM
EKVX NSCLC
  GI50: 0.0767 µM
  TGI: > 100 µM
HL-60(TB) leukemia
  GI50: 0.0269 µM
  TGI: 0.141 µM
HS 578T breast
  GI50: 0.0167 µM
  TGI: 0.409 µM
MOLT-4 leukemia
  GI50: 0.0497 µM
  TGI: 3.55 µM
NCI-H23 lung
  GI50: 0.0359 µM
  TGI: 14.5 µM
SK-MEL-2 melanoma
  GI50: 0.0476 µM
  TGI: 13.8 µM
SK-MEL-5 melanoma
  GI50: 0.0287 µM
  TGI: 0.597 µM
SK-OV-3 ovarian
  GI50: 0.035 µM
  TGI: 12.7 µM
